From patent publication US20040224958A1, “Pyridopyrimidinone derivatives for treatment of neurodegenerative disease” (priority 2000, published 2004)
Like-named read-outs stand apart in the source and are kept apart here.

Tests used:
cdk4/D = cdk4/D (Homo sapiens, UniProt P11802); assay: Cyclin-Dependent Kinase 4 (cdk4) Assay; assay type: biochemical
Experimental: A typical assay, for instance, measures inhibitory activity against the cyclin D dependent kinase 4 enzyme (cdk4/D). […] The cdk4 assay was carried out as follows.
Cyclin-Dependent Kinase 4 (cdk4) Assay
All components except the ATP were added to the wells, and the plate was placed on a plate mixer for 2 minutes. The reaction was started by adding [^32P]ATP and the plate was incubated at 25° C. for 15 minutes. The reaction was terminated by addition of 0.1 mL of 20% trichloroacetic acid (TCA). The plate was kept at 4° C. for at least 1 hour to allow the substrate to precipitate. The wells were then washed five times with 0.2 mL of 10% TCA and ^32P incorporation was determined with a beta plate counter (Wallac Inc., Gaithersburg, Md.).

Cdk5/p25 = Cdk5/p25 (Homo sapiens, UniProt Q00535); assay: Cyclin-Dependent Kinase 5 High Throughput Screening (cdk5-HTS) Assay; assay type: biochemical; conditions: high throughput screen
Experimental: Cyclin-Dependent Kinase 5 High Throughput Screening (cdk5-HTS) Assay
Enzyme assays for IC50 determinations were performed in 96-Pierce Reacti-Bind™ White Opaque Glutatione Coated Plates (Cat. No. 15240B).
The total volume was 0.100 mL containing a final concentration of 50 mM TRIS (tris[hydroxymethyl]aminomethane) at pH 7.4, 50 mM NaCl, 10 mM MgCl2, 5 mM dithiothreitol, 20 μM ATP containing 16 μCi/mL of Redivue[y33P]ATP (Amersham Pharmacia Biotech Cat. No. AH9968), 1.0 μg/mL Cdk5/p25, 20 μg/mL GST-RbCOOH, and appropriate dilutions of a compound of the present invention. The reaction was started by adding[^33P]ATP, and the plate was shaken for 30 seconds, then incubated at room temperature for 30 minutes. The reaction was terminated by addition of 0.05 mL of 120 mM EDTA. The plate was kept at room temperature for 45 minutes to allow substrate to bind to the walls of the plate. The wells were then washed three times with 0.2 mL of 1×PBS. Once thoroughly dry, 0.140 mL of MicroScint™2O (Packard Bioscience Cat. No. 87-9081) cocktail was added to all wells. The incorporation of ^33P was determined with a beta plate counter (Packard Topcount).

cdc2/cyclinB = cdc2/cyclinB (Homo sapiens, UniProt P06493); assay: Cyclin-Dependent Kinase Assay cdc2/cyclinB
cdc2/cyclinB, sequence (P06493 whole entry): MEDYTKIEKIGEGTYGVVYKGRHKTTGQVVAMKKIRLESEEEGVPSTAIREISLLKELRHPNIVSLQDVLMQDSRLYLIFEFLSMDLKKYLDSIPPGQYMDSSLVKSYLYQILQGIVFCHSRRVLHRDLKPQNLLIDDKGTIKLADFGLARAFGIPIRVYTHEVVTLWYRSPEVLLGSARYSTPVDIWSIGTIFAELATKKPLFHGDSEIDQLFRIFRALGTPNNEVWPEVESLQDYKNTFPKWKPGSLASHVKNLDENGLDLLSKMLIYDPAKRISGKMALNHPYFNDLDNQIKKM
cdc2/cyclinB, sequence (P14635 whole entry, further chain): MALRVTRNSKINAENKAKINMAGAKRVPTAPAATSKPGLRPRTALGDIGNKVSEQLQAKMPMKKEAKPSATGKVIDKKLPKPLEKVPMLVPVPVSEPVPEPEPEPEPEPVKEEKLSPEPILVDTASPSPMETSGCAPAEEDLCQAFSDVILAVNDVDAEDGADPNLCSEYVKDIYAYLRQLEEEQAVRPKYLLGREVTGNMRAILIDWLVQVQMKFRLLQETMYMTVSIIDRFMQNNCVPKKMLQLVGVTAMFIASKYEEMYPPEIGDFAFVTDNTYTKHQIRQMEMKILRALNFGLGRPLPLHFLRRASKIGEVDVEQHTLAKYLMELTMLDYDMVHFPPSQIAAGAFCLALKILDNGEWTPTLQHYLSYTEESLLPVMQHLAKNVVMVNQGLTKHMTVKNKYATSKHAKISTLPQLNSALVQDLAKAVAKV

cdk2/cyclinE = cdk2/cyclinE (Homo sapiens, UniProt P24941); assay: Cyclin-Dependent Kinase Assay cdk2/cyclinE; conditions: cdk2/E IC50
cdk2/cyclinA = cdk2/cyclinA (Homo sapiens, UniProt P24941); assay: Cyclin-Dependent Kinase Assay cdk2/cyclinA; conditions: cdk2/A IC50

cdk4/D, sequence (P11802 whole entry): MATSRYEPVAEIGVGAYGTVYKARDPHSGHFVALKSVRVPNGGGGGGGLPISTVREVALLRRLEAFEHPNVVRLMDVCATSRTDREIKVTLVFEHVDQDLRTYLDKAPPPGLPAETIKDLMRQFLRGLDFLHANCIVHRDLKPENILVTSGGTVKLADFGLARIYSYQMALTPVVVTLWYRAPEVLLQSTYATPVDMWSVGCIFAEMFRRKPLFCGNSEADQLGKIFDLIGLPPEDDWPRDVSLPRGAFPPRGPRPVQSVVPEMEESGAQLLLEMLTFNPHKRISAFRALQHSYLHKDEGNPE
cdk4/D, sequence (P24385 whole entry, further chain): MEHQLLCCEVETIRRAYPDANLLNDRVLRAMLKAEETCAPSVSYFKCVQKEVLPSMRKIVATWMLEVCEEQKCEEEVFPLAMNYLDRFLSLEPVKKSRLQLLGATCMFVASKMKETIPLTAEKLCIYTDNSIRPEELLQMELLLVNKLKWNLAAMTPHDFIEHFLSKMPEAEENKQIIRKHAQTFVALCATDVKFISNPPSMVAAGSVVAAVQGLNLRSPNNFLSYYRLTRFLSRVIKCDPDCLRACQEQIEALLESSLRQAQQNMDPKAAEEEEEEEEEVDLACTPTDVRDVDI

Row | IC50 (cdk4/D; read-out: cdk4/D IC50) | IC50 (Cdk5/p25) | Compound | also measured
1 | 2800 nM |  | CCn1c(=O)ccc2cnc(Nc3ccc(C)c(NS(C)(=O)=O)c3)nc21 [Example 307, N-[5-(8-Ethyl-7-oxo-7,8-dihydro-pyrido[2,3-d]pyrimidin-2-ylamino)-2-methyl-phenyl]-methanesulfonamide] | 
2 |  |  | CCn1c(=O)ccc2cnc(Nc3ccccc3OCc3ccccc3)nc21 [Example 56, 2-Benzyloxyphenylamino-8-ethyl-8H-pyrido[2,3-d]pyrimidin-7-one] | IC50 (cdk4/D; Table 1, read-out: cdk4/D IC50): 25000 nM
3 | 1400 nM | 610 nM | O=c1ccc2cnc(Nc3ccc(F)c(F)c3)nc2n1CC(F)(F)F [Example 607, 2-(3,4-Difluoro-phenylamino)-8-(2,2,2-trifluoro-ethyl)-8H-pyrido[2,3-d]pyrimidin-7-one] | 
4 | 420 nM |  | O=c1ccc2cnc(Nc3ccc4c(c3)CCN4)nc2n1CC1CC1 [Example 581, 8-Cyclopropylmethyl-2-(2,3-dihydro-1H-indol-5-ylamino)-8H-pyrido[2,3-d]pyrimidin-7-one] | IC50 (cdc2/cyclinB): 1600 nM
5 | 2900 nM |  | CCC(C)n1c(=O)ccc2cnc(Nc3ccc(C)c(NS(C)(=O)=O)c3)nc21 (stereo not drawn) [Example 480, N-[5-(8-sec-Butyl-7-oxo-7,8-dihydro-pyrido[2,3-d]pyrimidin-2-ylamino)-2-methyl-phenyl]-methanesulfonamide] | 
6 | 3100 nM |  | CCCCn1c(=O)ccc2cnc(Nc3ccc(C)c(NS(C)(=O)=O)c3)nc21 [Example 405, N-[5-(8-Butyl-7-oxo-7,8-dihydro-pyrido[2,3-d]pyrimidin-2-ylamino)-2-methyl-phenyl]-methanesulfonamide] | 
7 | 3200 nM |  | CC(C)n1c(=O)ccc2cnc(Nc3ccc4c(c3)CCN4)nc21 [Example 437, 2-(2,3-Dihydro-1H-indol-5-ylamino)-8-isopropyl-8H-pyrido[2,3-d]pyrimidin-7-one] | 
8 |  | 720 nM | O=c1ccc2cnc(Nc3ccc(O)cc3F)nc2n1CC(F)(F)F [Example 596, 2-(2-Fluoro-4-hydroxy-phenylamino)-8-(2,2,2-trifluoro-ethyl)-8H-pyrido[2,3-d]pyrimidin-7-one] | IC50 (cdc2/cyclinB): 1860 nM; IC50 (cdk2/cyclinE): 1300 nM
9 |  | 1200 nM | N#Cc1ccc(Nc2ncc3ccc(=O)n(CC(F)(F)F)c3n2)cc1C#N [Example 603, 4-[7-Oxo-8-(2,2,2-trifluoro-ethyl)-7,8-dihydro-pyrido[2,3-d]pyrimidin-2-ylamino]-phthalonitrile] | 
10 | 3200 nM | 2000 nM | CC(=O)Nc1cc(Nc2ncc3ccc(=O)n(CC(F)(F)F)c3n2)ccc1C#N [Example 604, N-{2-Cyano-5-[7-oxo-8-(2,2,2-trifluoro-ethyl)-7,8-dihydro-pyrido[2,3-d]pyrimidin-2-ylamino]-phenyl}-acetamide] | 
11 |  | 3300 nM | O=c1ccc2cnc(Nc3cccc(C(F)(F)F)c3)nc2n1CC(F)(F)F [Example 611, 8-(2,2,2-Trifluoro-ethyl)-2-(3-trifluoromethyl-phenylamino)-8H-pyrido[2,3-d]pyrimidin-7-one] | 
12 | 3200 nM |  | CCn1c(=O)ccc2cnc(Nc3ccc(NC(C)=O)c(C#N)c3)nc21 [Example 308, N-[2-Cyano-4-(8-ethyl-7-oxo-7,8-dihydro-pyrido[2,3-d]pyrimidin-2-ylamino)-phenyl]-acetamide] | 
13 |  | 420 nM | Cn1c(=O)ccc2cnc(Nc3ccc(C#N)c(C(F)(F)F)c3)nc21 [Example 620, 4-(8-Methyl-7-oxo-7,8-dihydro-pyrido[2,3-d]pyrimidin-2-ylamino)-2-trifluoromethyl-benzonitrile] | 
14 |  | 3200 nM | O=c1ccc2cnc(Nc3cc(F)cc(F)c3)nc2n1CC(F)(F)F [Example 609, 2-(3,5-Difluoro-phenylamino)-8-(2,2,2-trifluoro-ethyl)-8H-pyrido[2,3-d]pyrimidin-7-one] | 
15 | 2600 nM | 1300 nM | Cc1cc(Nc2ncc3ccc(=O)n(C(C)C)c3n2)ccc1O [Example 435, 2-(4-Hydroxy-3-methyl-phenylamino)-8-isopropyl-8H-pyrido[2,3-d]pyrimidin-7-one] | 
16 |  |  | CCNc1nc(Nc2ccccc2)ncc1C=CC(=O)OCC [Example 17, Ethyl 3-(4-Ethylamino-2-phenylamino-pyrimidin-5-yl)acrylate] | IC50 (cdk4/D; Table 2, Formula II compounds, read-out: cdk4 IC50): 2000 nM

Row | IC50 (cdk4/D; read-out: cdk4/D IC50) | IC50 (Cdk5/p25) | Compound | also measured
17 |  | 650 nM | CCn1c(=O)ccc2cnc(Nc3cc(C(F)(F)F)ccc3F)nc21 [Example 302, 8-Ethyl-2-(2-fluoro-5-trifluoromethyl-phenylamino)-8H-pyrido[2,3-d]pyrimidin-7-one] | IC50 (cdk2/cyclinE): 2300 nM
18 | 3600 nM |  | CCn1c(=O)ccc2cnc(Nc3ccc(OC(F)(F)F)c(Br)c3)nc21 [Example 306, 2-(3-Bromo-4-trifluoromethoxy-phenylamino)-8-ethyl-8H-pyrido[2,3-d]pyrimidin-7-one] | 
19 |  | 2200 nM | Cn1c(=O)ccc2cnc(Nc3ccc(O)c(Cl)c3)nc21 [Example 616, 2-(3-Chloro-4-hydroxy-phenylamino)-8-methyl-8H-pyrido[2,3-d]pyrimidin-7-one] | IC50 (cdk2/cyclinE): 3800 nM
20 |  | 3500 nM | CCC(CC)n1c(=O)ccc2cnc(Nc3ccc(C(F)(F)F)c([N+](=O)[O-])c3)nc21 [Example 489, 8-(1-Ethyl-propyl)-2-(3-nitro-4-trifluoromethyl-phenylamino)-8H-pyrido[2,3-d]pyrimidin-7-one] | 
21 | 1700 nM |  | CCC(C)n1c(=O)ccc2cnc(Nc3ccc(Br)c(C)c3)nc21 (stereo not drawn) [Example 479, 2-(4-Bromo-3-methyl-phenylamino)-8-sec-butyl-8H-pyrido[2,3-d]pyrimidin-7-one] | 
22 | 2800 nM |  | CC(=O)Nc1c(F)cc(Nc2ncc3ccc(=O)n(CC4CC4)c3n2)cc1Cl [Example 579, N-[2-Chloro4-(8-cyclopropylmethyl-7-oxo-7,8-dihydro-pyrido[2,3-d]pyrimidin-2-ylamino)-6-fluoro-phenyl]-acetamide] | IC50 (cdk2/cyclinA): 3900 nM; IC50 (cdk2/cyclinE): 2900 nM
23 |  | 830 nM | CCCn1c(=O)ccc2cnc(Nc3ccc(C#N)c(C#N)c3)nc21 [Example 339, 4-(7-Oxo-8-propyl-7,8-dihydro-pyrido[2,3-d]pyrimidin-2-ylamino)-phthalonitrile] | IC50 (cdk2/cyclinE): 1800 nM
24 |  | 1700 nM | COc1cc(Nc2ncc3ccc(=O)n(C)c3n2)cc(OC)c1OC [Example 619, 8-Methyl-2-(3,4,5-trimethoxy-phenylamino)-8H-pyrido[2,3-d]pyrimidin-7-one] | 
25 | 3800 nM | 1800 nM | COc1cc(Nc2ncc3ccc(=O)n(CC(F)(F)F)c3n2)cc(C(F)(F)F)c1 [Example 606, 2-(3-Methoxy-5-trifluoromethyl-phenylamino)-8-(2,2,2-trifluoro-ethyl)-8H-pyrido[2,3-d]pyrimidin-7-one] | IC50 (cdc2/cyclinB): 3500 nM
26 | 1300 nM |  | CCC(C)n1c(=O)ccc2cnc(Nc3ccc(C)c(Br)c3)nc21 (stereo not drawn) [Example 478, 2-(3-Bromo-4-methyl-phenylamino)-8-sec-butyl-8H-pyrido[2,3-d]pyrimidin-7-one] | 
27 | 2700 nM |  | CC(=O)Nc1ccc(Nc2ncc3ccc(=O)n(C(C)C)c3n2)cc1C#N [Example 445, N-[2-Cyano-4-(8-isopropyl-7-oxo-7,8-dihydro-pyrido[2,3-d]pyrimidin-2-ylamino)-phenyl]-acetamide] | 
28 | 1900 nM |  | CCCn1c(=O)ccc2cnc(Nc3ccc(OC(F)(F)F)c(Br)c3)nc21 [Example 363, 2-(3-Bromo-4-trifluoromethoi-phenylamino)-8-propyl-8H-pyrido[2,3-d]pyrimidin-7-one] | 
29 | 1300 nM | 180 nM | COc1ccc(Nc2ncc3ccc(=O)n(CC(F)(F)F)c3n2)cc1F [Example 602, 2-(3-Fluoro-4-methoxy-phenylamino)-8-(2,2,2-trifluoro-ethyl)-8H-pyrido[2,3-d]pyrimidin-7-one] | IC50 (cdc2/cyclinB): 1800 nM
30 | 99 nM |  | O=c1ccc2cnc(Nc3ccc4c(c3)CCN4)nc2n1C1CCCC1 [Example 553, 8-Cyclopentyl-2-(2,3-dihydro-1H-indol-5-ylamino)-8H-pyrido[2,3-d]pyrimidin-7-one] | IC50 (cdc2/cyclinB): 2500 nM
31 |  | 2900 nM | CCCn1c(=O)ccc2cnc(Nc3ccc4c(c3)NCC4)nc21 [Example 352, 2-(2,3-Dihydro-1H-indol-6-ylamino)-8-propyl-8H-pyrido[2,3-d]pyrimidin-7-one] | 

Row | Compound | IC50 (cdk4/D; read-out: cdk4/D IC50) | IC50 (Cdk5/p25) | also measured
32 | 8-Butyl-2-(2-fluoro-4-nitro-phenylamino)-8H-pyrido[2,3-d]pyrimidin-7-one [Example 367] | 2300 nM |  | 
